Source: US20090025713A1, “Nebulised Antibiotics for Inhalation Therapy” (priority 2006, published 2009)
“And” between values parts separate entries of the source, which are not always exact repeats. Equal entries are not always repeated.

Test system: Calu-3 cells
Experiment: Cellular tolerability test: TEER of Calu-3 monolayers
Format: cell-based, human
Details: for TEER after 2 hours Mean [%]: in KRB; for effect on vitality of Calu-3 cells (in words): summary of Table 1
Excerpt: In addition to the physicochemical properties of drug formulations and their stability, either as solution or dispersed systems, it is helpful to investigate the cellular tolerability of such drug formulations in a cell culture test system. For this purpose the bronchial cell line Calu-3 was used as an in vitro model for toxicity assessment. Calu-3 represents a human submucosal adenocarcinoma cell line that forms tight, polarized and well differentiated monolayers with apical microvilli and tight junctional complexes. In contrast to other cell lines, Calu-3 cells generate extracellular mucus. […] In addition, it has been shown that loss of monolayer integrity is paralleled by a decrease in TEER to values below 600Ω·cm^2 and an increase in permeability. […] Since toxicity is paralleled by a loss of the monolayer integrity, a decrease in TEER of more than 50% is indicative for the toxicity of a test compound. […] The Calu-3 cell tests offer the possibility to investigate potential effects of the drug substance as well as the influence of excipients or formulation constituents.
TEER was determined in physiological Krebs Ringer buffer (KRB) for two hours after the application of the different formulations or excipients. A decrease of the measured resistance indicated an affection of intact epithelial cell-cell contacts (tight junctions), which is an extremely sensitive parameter to determine toxic effects. To assess whether such cell damage was reversible, the cells were incubated for 24 h in cell culture subsequently to the incubation with the test formulations.

[1] = conc. (undiluted), after 24 h in cell culture following incubation
[2] = conc. (undiluted; stock concentration given with each formulation name)
[3] = dilution 1:5, after 24 h in cell culture following incubation
[4] = dilution 1:10, after 24 h in cell culture following incubation

Row | Compound | TEER after 24 hours Mean [%] [1] | TEER after 2 hours Mean [%] [2] | TEER after 24 hours Mean [%] [3] | TEER after 2 hours Mean [%] (dilution 1:5) | effect on vitality of Calu-3 cells (in words) | TEER after 24 hours Mean [%] [4] | TEER after 2 hours Mean [%] (dilution 1:10) | TEER after 24 hours Mean [%] (positive control, 0.1% w/v in KRB, passages p44U, p45U, p46U, p47U)
1 | O=C(O)CC(O)(CC(=O)O)C(=O)O [Citric acid] | 53% | 105% | 44% | 40% | – | – | – | –
2 | NC[C@H]1O[C@H](O[C@H]2[C@H](O)[C@@H](O[C@H]3O[C@H](CO)[C@@H](O)[C@H](N)[C@H]3O)[C@H](N)C[C@@H]2N)[C@H](N)C[C@@H]1O [Tobramycin (T100), Tobramycin, reference compound] | 46% | 94% | 79% | 123% | No damaging effect | – | – | –
3 | Captisol | 58% | 114% | 56% | 98% | – | 66% | 83% | –
4 | 2-hydroxypropyl-β-cyclodextrin [Example 2-HP-β-CD] | 45% | 59% | 77% | 86% | – | 73% | 90% | –
5 | C[C@@H]1[C@H](O)[C@@H](C)/C=C/C=C/C=C/C=C/C=C/C=C/C=C/[C@H](O[C@@H]2O[C@H](C)[C@@H](O)[C@H](N)[C@@H]2O)C[C@@H]2O[C@](O)(C[C@@H](O)C[C@@H](O)[C@H](O)CC[C@@H](O)C[C@@H](O)CC(=O)O[C@H]1C)C[C@H](O)[C@H]2C(=O)O [Amphotericin B, reference compound] | 67% | 108% | 64% | 80% | No damaging effect | – | – | –
6 | O=C1NS(=O)(=O)c2ccccc21.[Na] [Saccharin-Natrium] | 43% | 55% | 50% | 55% | – | – | – | –
7 | Vitamin E TPGS | 50% | 47% | 49% | 48% | – | 51% | 47% | –
8 | CCCCCCCCCCCCOS(=O)(=O)[O-].[Na+] [SDS, reference compound] | – | – | – | – | – | – | – | 10% and 6% and 8%
9 | OC[C@H]1O[C@@H]2O[C@H]3[C@H](O)[C@@H](O)[C@@H](O[C@H]4[C@H](O)[C@@H](O)[C@@H](O[C@H]5[C@H](O)[C@@H](O)[C@@H](O[C@H]6[C@H](O)[C@@H](O)[C@@H](O[C@H]7[C@H](O)[C@@H](O)[C@@H](O[C@H]8[C@H](O)[C@@H](O)[C@@H](O[C@H]9[C@H](O)[C@@H](O)[C@@H](O[C@H]1[C@H](O)[C@H]2O)O[C@@H]9CO)O[C@@H]8CO)O[C@@H]7CO)O[C@@H]6CO)O[C@@H]5CO)O[C@@H]4CO)O[C@@H]3CO [Gamma-CD, γ-cyclodextrin] | 41% | 61% | 46% | 69% | – | 44% | 65% | –
10 | O=C1O[C@H]([C@@H](O)CO)C([O-])=C1O.[Na+] [Sodium Ascorbate] | 70% | 22% | 66% | 70% | – | 51% | 57% | –
